Measured values taken from US20230025880A1, “FUSED TRICYCLIC COMPOUND AND MEDICINAL USE THEREOF” (JAPAN TOBACCO INC., priority 2020, published 2023).

Molecular target: T1, human PDHK2 (hPDHK2) (Homo sapiens, UniProt Q15119)
T1 construct: made in house; host or cells: Escherichia coli BL21(DE3), pET-17b vector
Test: Inhibitory action of PDHK2 activity (residual PDH activity, NADH absorbance at 340 nm)
Format: biochemical
Settings: PDH/hPDHK2 complex, PDHK reaction 45 min at room temperature
Method: In the case of human PDHK2 (hPDHK2, NCBI Reference Database Accession number NM_002611.4), modified hPDHK2 cDNA wherein FLAG-Tag sequence was added to the N terminus of hPDHK2 cDNA clone (pReceiver-M01/PDK2-GeneCopoeia) as the base was prepared by polymerase chain reaction (PCR) and ligated to the NdeI/EcoRI site of pET-17b vector (Merck KGaA, Catalog Number 69663-3). The recombinant construct was transformed into Escherichia coli DH5α. The recombinant clones were identified, and plasmid DNA was isolated and subjected to the DNA sequence analysis. One clone which had the expected nucleic acid sequence was selected for expression work.
For expression of hPDHK2 activity, Escherichia coli strain BL21(DE3) cells (Merck KGaA, Catalog Number 69450-4) were transformed with the pET17b vector containing modified hPDHK2 cDNA. The Escherichia coli were grown to an optical density 0.6 ([…]) at 30° C. Protein expression was induced by the addition of 500 μmol/L isopropyl-β-thiogalactopyranoside. The Escherichia coli were cultured at 20° C. for 17-18 hr and harvested by centrifugation. The harvested Escherichia coli was resuspended in a suspension buffer (20 mmol/L HEPES-NaOH, 500 mmol/L sodium chloride, 1% ethylene glycol, 0.1% Pluronic (registered trademark) F-68 (pH 8.0), cOmplete, EDTA-free (Roche) (pH 8.0)), and disrupted by a microfluidizer M-110H (MIZUHO INDUSTRIAL CO., LTD.). The precipitate was removed by centrifugation and the supernatant was added to DDDDK-tagged Protein PURIFICATION GEL (MEDICAL & BIOLOGICAL LABORATORIES CO., LTD., Code No. 3329). DDDDK-tagged Protein PURIFICATION GEL was washed with a washing buffer (20 mmol/L HEPES-NaOH, 500 mmol/L sodium chloride, 1% ethylene glycol, 0.1% Pluronic F-68 (pH 8.0)) and the bound protein was eluted with elution buffer 1 (20 mmol/L HEPES-NaOH, 100 μg/mL peptide (amino acid sequence DYKDDDDK) (SEQ ID NO: 1), 500 mmol/L sodium chloride, 1% ethylene glycol, 0.1% Pluronic F-68 (pH 8.0)). The eluted fractions containing FLAG-Tagged protein were pooled, concentrated by an ultrafiltration method, added to a gel filtration column (HiLoad 26/60 Superdex 200 (GE Healthcare Life Sciences, Code No. 17-1070-01)), and eluted with elution buffer 2 (20 mmol/L HEPES-NaOH, 150 mmol/L sodium chloride, 0.5 mmol/L ethylenediaminetetraacetic acid (EDTA), 1% ethylene glycol, 0.1% Pluronic F-68 (pH 8.0)). The eluted fractions were pooled and preserved at −80° C.
PDH (porcine heart PDH complex, Sigma P7032) and 0.5 μg/mL hPDHK2 were mixed in an assay buffer (50 mmol/L 3-morpholinopropanesulfonic acid (pH 7.0), 20 mmol/L dipotassium hydrogen phosphate, 60 mmol/L potassium chloride, 2 mmol/L magnesium chloride, 0.4 mmol/L EDTA, 0.2% poloxamer, 2 mmol/L dithiothreitol) so that the final concentration of PDH was 0.025 U/mL, and the mixture was incubated at 4° C. overnight to obtain a PDH/hPDHK2 complex solution.
PDH was mixed with the assay buffer so that the final concentration was 0.025 U/mL, and the mixture was incubated at 4° C. overnight to prepare a PDH solution.
The test compounds were diluted with DMSO. To measure an inhibitory action of the test compound on the PDHK activity in the PDH/hPDHK2 complex solution, PDH/hPDHK2 complex solution (20 μL), test compound (1.5 μL) and 1.06 μmol/L ATP (diluted with assay buffer) (8.5 μL) were added to a 384 well microplate (Greiner Bio-One 781801) and PDHK reaction was performed at room temperature for 45 min (test compound well). DMSO (1.5 μL) was added to control wells instead of test compound. In addition, DMSO (1.5 μL) was added to blank wells instead of the test compound, and PDH solution was added instead of the PDH/hPDHK2 complex solution. To measure an inhibitory action of the test compound on the PDHK activity inherent in the PDH solution, a test compound was added and the PDH solution instead of the PDH/hPDHK2 complex solution was added to a blank+test compound well. […]

Row | SMILES | IC50
1 | C[C@H]1Cn2nc(OCC(F)F)cc2-c2cnc([C@@](C)(O)C(F)(F)F)n21 [Example 46] | 13 nM
2 | C[C@H]1Cn2nc(C#N)cc2-c2cnc([C@@](C)(O)C(F)(F)F)n21 [Example 42] | 24 nM
3 | C[C@H]1Cn2nc(OCC(C)(C)S(C)(=O)=O)cc2-c2cnc([C@@](C)(O)C(F)(F)F)n21 [Example 84] | 42 nM
4 | C[C@H]1Cn2nc(CO)cc2-c2cnc([C@@](C)(O)C(F)(F)F)n21 [Example 36] | 19 nM
5 | C[C@H]1Cn2nc(Oc3cc(C4CC4)ncn3)cc2-c2cnc([C@@](C)(O)C(F)(F)F)n21 [Example 72] | 12 nM
6 | C[C@H]1Cn2nc(OCC3COC3)cc2-c2cnc([C@@](C)(O)C(F)(F)F)n21 [Example 78] | 17 nM
7 | C[C@H]1Cn2nc(OC(C)(C)C(C)(C)O)cc2-c2cnc([C@@](C)(O)C(F)(F)F)n21 [Example 80] | 13 nM
8 | C[C@H]1Cn2nc(OC(F)F)cc2-c2cnc([C@@](C)(O)C(F)(F)F)n21 [Example 23, (R)-2-((S)-9-(difluoromethoxy)-5-methyl-5,6-dihydroimidazo[1,5-a]pyrazolo[5,1-c]pyrazin-3-yl)-1,1,1-trifluoropropan-2-ol] | 13 nM
9 | C[C@H]1Cn2nc(OCCC3(C#N)CC3)cc2-c2cnc([C@@](C)(O)C(F)(F)F)n21 [Example 88] | 17 nM
10 | C[C@H]1Cn2c(-c3ccc(F)c(OC(C)(C)C)c3)nnc2-c2cnc([C@@](C)(O)C(F)(F)F)n21 [Example 98] | 12 nM
11 | C[C@H]1Cn2nc(OCCOC(F)(F)F)cc2-c2cnc([C@@](C)(O)C(F)(F)F)n21 [Example 61] | 14 nM
12 | C[C@H]1Cn2c(nnc2C2(c3ccc(Cl)cc3)COC2)-c2cnc([C@@](C)(O)C(F)(F)F)n21 [Example 89] | 8.8 nM
13 | C[C@H]1Cn2c(nnc2C2(c3ccc(F)cc3)CC2)-c2cnc([C@@](C)(O)C(F)(F)F)n21 [Example 81] | 7.3 nM
14 | C[C@H]1Cn2nc(OCC3(CC#N)CC3)cc2-c2cnc([C@@](C)(O)C(F)(F)F)n21 [Example 57] | 22 nM
15 | C[C@H]1Cn2nc(OC3CCOCC3)cc2-c2cnc([C@@](C)(O)C(F)(F)F)n21 [Example 77] | 17 nM
16 | C[C@H]1Cc2cc(C#N)ccc2-c2cnc([C@@](C)(O)C(F)(F)F)n21 (racemic) [Example 5] | 21 nM
17 | C[C@H]1Cn2nc(OCF)cc2-c2cnc([C@@](C)(O)C(F)(F)F)n21 [Example 48] | 14 nM

Row | SMILES | IC50
18 | C[C@H]1Cn2nc(OCCOC(F)F)cc2-c2cnc([C@@](C)(O)C(F)(F)F)n21 [Example 96] | 13 nM
19 | C[C@H]1Cn2nc(C(=O)N3CC(F)(F)C3)cc2-c2cnc([C@@](C)(O)C(F)(F)F)n21 [Example 38] | 14 nM
20 | Cc1cnn2c1-c1cnc([C@@](C)(O)C(F)(F)F)n1[C@@H](C)C2 [Example 31] | 81 nM
21 | C[C@H]1Cn2nc(OCC3CCN(S(C)(=O)=O)CC3)cc2-c2cnc([C@@](C)(O)C(F)(F)F)n21 [Example 68] | 14 nM
22 | C[C@H]1Cc2c(noc2C2CC2)-c2cnc([C@@](C)(O)C(F)(F)F)n21 (racemic) [Example 35, 2-(3-cyclopropyl-5-methyl-4,5-dihydroimidazo[1,5-a]isoxazolo[3,4-c]pyridin-7-yl)-1,1,1-trifluoropropan-2-ol] | 19 nM
23 | C[C@H]1Cn2c(cc(=O)n2C(F)F)-c2cnc([C@@](C)(O)C(F)(F)F)n21 [Example 103] | 26 nM
24 | C[C@H]1Cn2nc(OC(C)(C)C)cc2-c2cnc([C@@](C)(O)C(F)(F)F)n21 [Example 55] | 16 nM
25 | CC(=O)N1CCC(COc2cc3n(n2)C[C@H](C)n2c-3cnc2[C@@](C)(O)C(F)(F)F)CC1 [Example 67] | 19 nM
26 | C[C@H]1Cn2nc(O[C@H]3CCOC3)cc2-c2cnc([C@@](C)(O)C(F)(F)F)n21 [Example 102] | 16 nM
27 | C[C@H]1Cn2nc(C(F)F)cc2-c2cnc([C@@](C)(O)C(F)(F)F)n21 [Example 29] | 38 nM
28 | C[C@H]1Cn2nc(OCc3ccc(C#N)cc3)cc2-c2cnc([C@@](C)(O)C(F)(F)F)n21 [Example 49] | 8.8 nM
29 | C[C@H]1Cn2nc(C=O)cc2-c2cnc([C@@](C)(O)C(F)(F)F)n21 [Example 37] | 21 nM
30 | C[C@H]1Cn2nc(O)cc2-c2cnc([C@@](C)(O)C(F)(F)F)n21 [Example 28] | 22 nM
31 | C[C@H]1Cn2nc(OCC3CC4CCC(C3)S4(=O)=O)cc2-c2cnc([C@@](C)(O)C(F)(F)F)n21 (some centres unmarked) [Example 83] | 16 nM
32 | C[C@H]1Cn2nc(C(C)(C)O)cc2-c2cnc([C@@](C)(O)C(F)(F)F)n21 [Example 20] | 22 nM
33 | C[C@H]1Cn2nc(C(=O)O)cc2-c2cnc([C@@](C)(O)C(F)(F)F)n21 [Example 41] | 21 nM
34 | C[C@H]1Cn2nc(OCc3ccccc3)cc2-c2cnc([C@@](C)(O)C(F)(F)F)n21 [Example 27] | 11 nM

The next lines start with the values.

Row | IC50 | SMILES
35 | 8.7 nM | C[C@H]1Cn2c(nnc2C(F)(F)c2ccc(C(F)(F)F)cn2)-c2cnc([C@@](C)(O)C(F)(F)F)n21 [Example 87]
36 | 17 nM | C[C@H]1Cc2c(C(F)(F)F)noc2-c2cnc([C@@](C)(O)C(F)(F)F)n21 (racemic) [Example 3]
37 | 6.3 nM | C[C@H]1Cn2c(nnc2C(F)(F)Oc2ccc(F)cc2)-c2cnc([C@@](C)(O)C(F)(F)F)n21 [Example 62]
38 | 6.5 nM | C[C@H]1Cn2c(C(F)(F)F)cnc2-c2cnc([C@@](C)(O)C(F)(F)F)n21 [Example 18]
39 | 16 nM | C[C@H]1Cn2c(nnc2C(O)(C(F)(F)F)C(F)(F)F)-c2cnc([C@@](C)(O)C(F)(F)F)n21 [Example 92]
40 | 11 nM | C[C@H]1Cn2cc(C(F)(F)F)nc2-c2cnc([C@@](C)(O)C(F)(F)F)n21 [Example 19]
41 | 14 nM | C[C@H]1Cn2nc(C(F)(F)F)cc2-c2cnc([C@@](C)(O)C(F)(F)F)n21 [Example 4]
42 | 7.4 nM | C[C@H]1Cn2c(nnc2C(F)(F)c2ccccc2Cl)-c2cnc([C@@](C)(O)C(F)(F)F)n21 [Example 73]
43 | 7.3 nM | C[C@H]1Cn2c(nnc2C2(C)CC2)-c2cnc([C@@](C)(O)C(F)(F)F)n21 [Example 17]
44 | 7 nM | C[C@H]1Cn2c(-c3ccc(F)cc3C(F)(F)F)nnc2-c2cnc([C@@](C)(O)C(F)(F)F)n21 [Example 56]
45 | 11 nM | C[C@H]1Cn2c(nnc2C(C)(C)F)-c2cnc([C@@](C)(O)C(F)(F)F)n21 [Example 91]
46 | 6.3 nM | C[C@H]1Cn2c(-c3ccc(F)cc3)nnc2-c2cnc([C@@](C)(O)C(F)(F)F)n21 [Example 21]
47 | 13 nM | C[C@H]1Cn2nc(C(F)(F)F)cc2-c2nnc([C@@](C)(O)C(F)(F)F)n21 [Example 13, (R)-1,1,1-trifluoro-2-((S)-5-methyl-9-(trifluoromethyl)-5,6-dihydropyrazolo[1,5-a] [1,2,4]triazolo[3,4-c]pyrazin-3-yl)propan-2-ol]
48 | 21 nM | COC(c1nnc2n1C[C@H](C)n1c-2cnc1[C@@](C)(O)C(F)(F)F)(C(F)(F)F)C(F)(F)F [Example 93]
49 | 12 nM | C[C@H]1Cn2nc(OCC(F)(F)F)cc2-c2cnc([C@@](C)(O)C(F)(F)F)n21 [Example 74]
50 | 8.1 nM | C[C@H]1Cn2c(nnc2C(C)(C)C(F)(F)F)-c2cnc([C@@](C)(O)C(F)(F)F)n21 [Example 39]
